Counter-ions that a name gives are not always drawn. Like-named read-outs stand apart in the source and are kept apart here.
Tested on: KMS.12.BM cells
Assay: KMS.12.BM cell viability assay
Format: cell-based
Settings: KMS.12.BM human myeloma cells, 3 days, Cell Titer-GLO ATP quantitation, read-out: KMS cellular IC50
Outline: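 IC50 derived from luminescent ATP quantitation (Cell Titer-GLO) of viable cells after 3-day compound treatment. KMS.12.BM human myeloma line seeded at 5000 cells/well in RPMI with 10% FBS.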

Row | Structure (SMILES) | IC50 (72 h) [nM] | IC50 [nM]
1 | Cc1nnc2ccc3c(cc(-c4ccn(C5(CC#N)CN(S(C)(=O)=O)C5)n4)n3Cc3cccc(Cl)c3)n12 [Example 107, [3-{3-[6-(3-chlorobenzyl)-1-methyl-6H-pyrrolo[2,3-e][1,2,4]triazolo[4,3-a]pyridin-7-yl]-1H-pyrazol-1-yl}-1-(methylsulfonyl)azetidin-3-yl]acetonitrile] | ≤ 1000 | –
2 | Cc1cc2c(cc(NC(N)=O)c3nnc(C)n32)n1Cc1cc(F)cc(F)c1 [Example 233, 1-(6-(3,5-Difluorobenzyl)-1,7-dimethyl-6H-pyrrolo[2,3-e][1,2,4]triazolo[4,3-a]pyridin-4-yl)urea] | ≤ 1000 | –
3 | Cc1nnc2ccc3c(cc(-c4ccn(CCC(=O)N(C)C)n4)n3Cc3cccc(Cl)c3)n12 [Example 103, 3-{3-[6-(3-chlorobenzyl)-1-methyl-6H-pyrrolo[2,3-e][1,2,4]triazolo[4,3-a]pyridin-7-yl]-1H-pyrazol-1-yl}-N,N-dimethylpropanamide] | – | ≤ 1000
4 | Cc1nnc2ccc3c(cc(Cn4ccnc4)n3Cc3ccccc3)n12 [Example 57, 6-benzyl-7-(1H-imidazol-1-ylmethyl)-1-methyl-6H-pyrrolo[2,3-e][1,2,4]triazolo[4,3-a]pyridine] | 1000 to 10000 | –
5 | Cc1nnc2ccc3c(cc(-c4ccn(C5CN(S(=O)(=O)C6CC6)C5)n4)n3Cc3cccc(Cl)c3)n12 [Example 165, 6-(3-Chlorobenzyl)-7-{1-[1-(cyclopropylsulfonyl)azetidin-3-yl]-1H-pyrazol-3-yl}-1-methyl-6H-pyrrolo[2,3-e][1,2,4]triazolo[4,3-a]pyridine trifluoroacetate salt] | ≤ 1000 | –
6 | Cc1cc2c(cc(NS(C)(=O)=O)c3nnc(C)n32)n1Cc1ccccc1 [Example 271, N-(6-Benzyl-1,7-dimethyl-6H-pyrrolo[2,3-e][1,2,4]triazolo[4,3-a]pyridin-4-yl)methanesulfonamide] | ≤ 1000 | –
7 | Cc1cc2c(cc(NC3CN(C(=O)OC(C)(C)C)C3)c3nnc(C)n32)n1Cc1ccccc1 [Example 244, tert-Butyl 3-(6-benzyl-1,7-dimethyl-6H-pyrrolo[2,3-e][1,2,4]triazolo[4,3-a]pyridin-4-ylamino)azetidine-1-carboxylate] | ≤ 1000 | –
8 | Cc1cc2c(ccc3nnc(C)n32)n1S(=O)(=O)c1ccccc1 [Example 2a, 1,7-dimethyl-6-(phenylsulfonyl)-6H-pyrrolo[2,3-e][1,2,4]triazolo[4,3-a]pyridine] | 1000 to 10000 | –
9 | Cc1nnc2ccc3c(cc(-c4c[nH]cn4)n3Cc3cccc(Cl)c3)n12 [Example 172, 6-(3-Chlorobenzyl)-7-(1H-imidazol-4-yl)-1-methyl-6H-pyrrolo[2,3-e][1,2,4]triazolo[4,3-a]pyridine bis(trifluoroacetate) salt] | ≤ 1000 | –
10 | Cc1nnc2ccc3c(cc(C(=O)NCCN4CCOCC4)n3Cc3cccc(Cl)c3)n12 [Example 119, 6-(3-Chlorobenzyl)-1-methyl-N-(2-morpholin-4-ylethyl)-6H-pyrrolo[2,3-e][1,2,4]triazolo[4,3-a]pyridine-7-carboxamide trifluoroacetate salt] | ≤ 1000 | –
11 | CNC(=O)c1cc2c(ccc3nnc(C)n32)n1Cc1cccc(CN2CCC2)c1 [Example 122, 6-[3-(Azetidin-1-ylmethyl)benzyl]-N,1-dimethyl-6H-pyrrolo[2,3-e][1,2,4]triazolo[4,3-a]pyridine-7-carboxamide bis(trifluoroacetate) salt] | 1000 to 10000 | –
12 | Cc1nnc2ccc3c(cc(C(=O)N[C@H]4C[C@@H](C#N)C4)n3Cc3ccccc3)n12 [Example 101, 6-benzyl-N-(cis-3-cyanocyclobutyl)-1-methyl-6H-pyrrolo[2,3-e][1,2,4]triazolo[4,3-a]pyridine-7-carboxamide] | 1000 to 10000 | –
13 | Cc1nnc2ccc3c(cc(-c4cnn(CC#N)c4)n3Cc3ccccc3)n12 [Example 64, [4-(6-benzyl-1-methyl-6H-pyrrolo[2,3-e][1,2,4]triazolo[4,3-a]pyridin-7-yl)-1H-pyrazol-1-yl]acetonitrile] | ≤ 1000 | –
14 | Cc1nnc2ccc3c(cc(-c4ccn(CCCO)n4)n3Cc3cccc(Cl)c3)n12 [Example 173, 3-{3-[6-(3-Chlorobenzyl)-1-methyl-6H-pyrrolo[2,3-e][1,2,4]triazolo[4,3-a]pyridin-7-yl]-1H-pyrazol-1-yl}propan-1-ol trifluoroacetate salt] | ≤ 1000 | –
15 | Cc1cc2c(cc(N[C@H]3CC[C@H](N)CC3)c3nnc(C)n32)n1Cc1ccccc1 [Example 217, trans-N-(6-Benzyl-1,7-dimethyl-6H-pyrrolo[2,3-e][1,2,4]triazolo[4,3-a]pyridin-4-yl)cyclohexane-1,4-diamine] | ≤ 1000 | –
16 | Cc1cc2c(cc(N[C@@H]3CCOC3)c3nnc(C)n32)n1Cc1ccccc1 [Example 147, 6-benzyl-1,7-dimethyl-N-[(3R)-tetrahydrofuran-3-yl]-6H-pyrrolo[2,3-e][1,2,4]triazolo[4,3-a]pyridin-4-amine] | 1000 to 10000 | –
17 | Cc1nnc2ccc3c(cc(-c4ccn(C5(CC#N)CN(C)C5)n4)n3Cc3ccccc3)n12 [Example 93, {3-[3-(6-benzyl-1-methyl-6H-pyrrolo[2,3-e][1,2,4]triazolo[4,3-a]pyridin-7-yl)-1H-pyrazol-1-yl]-1-methylazetidin-3-yl}acetonitrile] | ≤ 1000 | –

Row | Structure (SMILES) | IC50 (72 h) [nM] | IC50 [nM]
18 | Cc1cc2c(cc(NC(=O)OC(C)(C)C)c3nnc(C)n32)n1Cc1ccccc1 [Example 248, tert-Butyl 6-benzyl-1,7-dimethyl-6H-pyrrolo[2,3-e][1,2,4]triazolo[4,3-a]pyridin-4-ylcarbamate] | ≤ 1000 | –
19 | Cc1nnc2ccc3c(cc(-c4ccn(C5(CC#N)CN(S(C)(=O)=O)C5)n4)n3Cc3ccccc3)n12 [Example 92, [3-[3-(6-benzyl-1-methyl-6H-pyrrolo[2,3-e][1,2,4]triazolo[4,3-a]pyridin-7-yl)-1H-pyrazol-1-yl]-1-(methylsulfonyl)azetidin-3-yl]acetonitrile] | ≤ 1000 | –
20 | CC(=O)N1CC(CC#N)(n2ccc(-c3cc4c(ccc5nnc(C)n54)n3Cc3cccc(Cl)c3)n2)C1 [Example 106, (1-acetyl-3-{3-[6-(3-chlorobenzyl)-1-methyl-6H-pyrrolo[2,3-e][1,2,4]triazolo[4,3-a]pyridin-7-yl]-1H-pyrazol-1-yl}azetidin-3-yl)acetonitrile] | ≤ 1000 | –
21 | Cc1cc2c(cc(N[C@H]3CC[C@H](N(C)C)CC3)c3nnc(C)n32)n1Cc1ccccc1 [Example 220, trans-N′-(6-Benzyl-1,7-dimethyl-6H-pyrrolo[2,3-e][1,2,4]triazolo[4,3-a]pyridin-4-yl)-N,N-dimethylcyclohexane-1,4-diamine] | 1000 to 10000 | –
22 | CCn1ccc(-c2cc3c(ccc4nnc(C)n43)n2Cc2ccccc2)n1 [Example 79, 6-benzyl-7-(1-ethyl-1H-pyrazol-3-yl)-1-methyl-6H-pyrrolo[2,3-e][1,2,4]triazolo[4,3-a]pyridine] | ≤ 1000 | –
23 | Cc1cc2c(cc(NCCN)c3nnc(C)n32)n1Cc1ccccc1 [Example 258, N1-(6-benzyl-1,7-dimethyl-6H-pyrrolo[2,3-e][1,2,4]triazolo[4,3-a]pyridin-4-yl)ethane-1,2-diamine] | ≤ 1000 | –
24 | Cc1cc2c(cc(Nc3ncc[nH]3)c3nnc(C)n32)n1Cc1ccccc1 [Example 253, 6-Benzyl-N-(1H-imidazol-2-yl)-1,7-dimethyl-6H-pyrrolo[2,3-e][1,2,4]triazolo[4,3-a]pyridin-4-amine] | ≤ 1000 | –
25 | Cc1cc2c(ccc3nnc(C)n32)n1Cc1ccc(CO)cc1 [Example 49, {4-[(1,7-dimethyl-6H-pyrrolo[2,3-e][1,2,4]triazolo[4,3-a]pyridin-6-yl)methyl]phenyl}methanol] | ≤ 1000 | –
26 | Cc1nnc2ccc3c(cc(CCO)n3Cc3ccccc3)n12 [Example 61, 2-(6-benzyl-1-methyl-6H-pyrrolo[2,3-e][1,2,4]triazolo[4,3-a]pyridin-7-yl)ethanol] | 1000 to 10000 | –
27 | CCCCC(c1ccccc1)n1c(C)cc2c1ccc1nnc(C)n12 (racemic) [Example 24, 1,7-dimethyl-6-(1-phenylpentyl)-6H-pyrrolo[2,3-e][1,2,4]triazolo[4,3-a]pyridine] | 1000 to 10000 | –
28 | CNC(=O)c1cc2c(ccc3nnc(C)n32)n1Cc1cc(Cl)cc(CN2CCCC2)c1 [Example 132, 6-[3-Chloro-5-(pyrrolidin-1-ylmethyl)benzyl]-N,1-dimethyl-6H-pyrrolo[2,3-e][1,2,4]triazolo[4,3-a]pyridine-7-carboxamide 2.5×(trifluoroacetate) salt] | ≤ 1000 | –
29 | Cc1nnc2ccc3c(cc(C(=O)NCCO)n3Cc3cccc(Cl)c3)n12 [Example 117, 6-(3-Chlorobenzyl)-N-(2-hydroxyethyl)-1-methyl-6H-pyrrolo[2,3-e][1,2,4]triazolo[4,3-a]pyridine-7-carboxamide trifluoroacetate salt] | ≤ 1000 | –
30 | Cc1nnc2ccc3c(cc(-c4ccn(C5CN(CCC#N)C5)n4)n3Cc3cccc(Cl)c3)n12 [Example 181, 3-(3-{3-[6-(3-Chlorobenzyl)-1-methyl-6H-pyrrolo[2,3-e][1,2,4]triazolo[4,3-a]pyridin-7-yl]-1H-pyrazol-1-yl}azetidin-1-yl)propanenitrile bis(trifluoroacetate) salt] | ≤ 1000 | –
31 | CCNC(=O)Nc1cc2c(cc(C)n2Cc2ccccc2)n2c(C)nnc12 [Example 249, 1-(6-Benzyl-1,7-dimethyl-6H-pyrrolo[2,3-e][1,2,4]triazolo[4,3-a]pyridin-4-yl)-3-ethylurea] | ≤ 1000 | –
32 | Cc1cc2c(cc(N[C@H]3CCNC3)c3nnc(C)n32)n1Cc1ccccc1 [Example 152, 6-benzyl-1,7-dimethyl-N-[(3S)-pyrrolidin-3-yl]-6H-pyrrolo[2,3-e][1,2,4]triazolo[4,3-a]pyridin-4-amine bis(trifluoroacetate) salt] | ≤ 1000 | –
33 | Cc1nnc2ccc3c(cc(-c4ccn(CCC(=O)NC5COC5)n4)n3Cc3cccc(Cl)c3)n12 [Example 168, 3-{3-[6-(3-Chlorobenzyl)-1-methyl-6H-pyrrolo[2,3-e][1,2,4]triazolo[4,3-a]pyridin-7-yl]-1H-pyrazol-1-yl}-N-oxetan-3-ylpropanamide trifluoroacetate salt] | ≤ 1000 | –
